Key:
MDA-MB-231 [1] = test: drug sensitivity score (DSS), cytotoxicity CellTox Green; higher = more cytotoxic; extreme values may be limits of the assay; conditions: 72 h
MDA-MB-231 [2] = test: drug sensitivity score (DSS), cell viability CellTiter-Glo; higher = more sensitive; extreme values may be limits of the assay; conditions: 72 h
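Wherever drug sensitivity score (DSS), cytotoxicity CellTox Green is given: DSS summarises each dose–response curve by combining IC50, EC50, maximal inhibition and efficacy across drug concentrations.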

Row | SMILES | drug sensitivity score (MDA-MB-231 [1]; shRNA: shPPFIA1_1) [DSS] | drug sensitivity score (MDA-MB-231 [1]; shRNA: shScramble) [DSS] | drug sensitivity score (MDA-MB-231 [2]; shRNA: shPPFIA1_1) [DSS] | drug sensitivity score (MDA-MB-231 [2]; shRNA: shScramble) [DSS]
1 | CN(C)C[C@@H]1CCn2cc(c3ccccc32)C2=C(C(=O)NC2=O)c2cn(c3ccccc23)CCO1 [Ruboxistaurin] | 3.8 | 5.5 | 7.2 | 7
2 | Cc1cc(Nc2nc(N[C@@H](C)c3ncc(F)cn3)ncc2Cl)[nH]n1 [AZD1480] | 0 | 0 | 0 | 0
3 | CNC(=O)CN1CCC(Oc2cc3c(Nc4cccc(Cl)c4F)ncnc3cc2OC)CC1 [Sapitinib] | 0 | 0 | 0 | 8.5
4 | C[C@]12CC[C@@H]3c4ccc(O)cc4C[C@@H](CCCCCCCCC[S+]([O-])CCCC(F)(F)C(F)(F)F)[C@H]3[C@@H]1CC[C@@H]2O (some centres undefined) [Fulvestrant] | 0 | 0 | 0 | 0
5 | COc1ccc(-c2nc(N3CCOCC3)c3sc(CN(C)c4ncc(C(=O)NO)cn4)cc3n2)cn1 [CUDC-907] | 23.5 | 24.5 | 24 | 28
6 | OCCn1cc(-c2cnc3nnn(Cc4ccc5ncccc5c4)c3n2)cn1 | 0 | 0 | 0.9 | 0
7 | Cc1cccc(-c2[nH]c(CNc3ccccc3F)nc2-c2ccc3ncnn3c2)n1 [TEW-7197] | 0.9 | 0 | 9.1 | 0
8 | O=C(/C=C\n1cnc(-c2cc(C(F)(F)F)cc(C(F)(F)F)c2)n1)NNc1cnccn1 [Selinexor] | 5.8 | 8.1 | 8.6 | 13.5
9 | CC1CCC(n2c3cnccc3c3cnc(Nc4ccc5c(n4)CCN(C(=O)CO)C5)nc32)CC1 (centres undefined) [AMG-925] | 0 | 0 | 0 | 0
10 | CC(C)C[C@H](NC(=O)[C@H](Cc1ccccc1)NC(=O)c1cnccn1)B(O)O [Bortezomib] | 26.8 | 24.3 | 21.3 | 23.1
11 | CCCc1cc(C)[nH]c(=O)c1CNC(=O)c1cc(-c2ccnc(N3CCN(C)CC3)c2)cc2c1cnn2C(C)C [GSK343] | 3.8 | 1.9 | 6 | 3.1
12 | CN(C)c1cc2c(cc1Sc1nc3c(N)nccc3n1CCNCC(C)(C)C)OCO2 [CUDC-305] | 3.4 | 3.4 | 8.7 | 13.6
13 | Cc1[nH]c2ccccc2c1CCNCc1ccc(/C=C/C(=O)NO)cc1 [Panobinostat] | 11.6 | 11.4 | 10.9 | 14
14 | CCc1c2c(nc3ccc(O)cc13)-c1cc3c(c(=O)n1C2)COC(=O)[C@]3(O)CC [SN-38] | 14.9 | 2 | 0.2 | 7.6
15 | Nc1nc(Cl)nc2c1ncn2[C@@H]1O[C@H](CO)[C@@H](O)[C@@H]1F [Clofarabine] | 0 | 0 | 0 | 6.5
16 | COC(=O)C[C@](O)(CCCC(C)(C)O)C(=O)O[C@@H]1C(OC)=C[C@]23CCCN2CCc2cc4c(cc2[C@H]13)OCO4 [Omacetaxine] | 11.8 | 18.4 | 11.2 | 22.9
17 | Oc1nc(-c2ccc(C(F)(F)F)cc2)nc2c1CSCC2 [XAV-939] | 1.2 | 0 | 1.6 | 0.5
18 | CC(=O)Nc1ccc(C(=O)Nc2ccccc2N)cc1 [Tacedinaline] | 0 | 0 | 0 | 0
19 | Cn1cc(-c2ccc3nnc(Sc4ccc5ncccc5c4)n3n2)cn1 [SGX-523] | 0 | 0.9 | 0.9 | 0
20 | Cc1ccc(NC(=O)c2ccc(CN3CC[C@H](N(C)C)C3)c(C(F)(F)F)c2)cc1Nc1nccc(-c2cncnc2)n1 [Bafetinib] | 0.6 | 0.5 | 0 | 4.3
21 | Cc1nc(Nc2ncc(C(=O)Nc3c(C)cccc3Cl)s2)cc(N2CCN(CCO)CC2)n1 [Dasatinib] | 0 | 0 | 0 | 9.3
22 | CC(C)Nc1cc(-c2c[nH]c(C(=O)N[C@H](CO)c3cccc(Cl)c3)c2)c(Cl)cn1 [Ulixertinib] | 0 | 2.7 | 0 | 2.1
23 | CN(CC(=O)N(Cc1ccc(C2CCCCC2)cc1)c1ccc(C(=O)O)cc1)S(=O)(=O)c1c(F)c(F)c(F)c(F)c1F [SH-4-54] | 7.3 | 7.7 | 3.8 | 5.7

Row | SMILES | drug sensitivity score (MDA-MB-231 [1]; shRNA: shPPFIA1_1) [DSS] | drug sensitivity score (MDA-MB-231 [1]; shRNA: shScramble) [DSS] | drug sensitivity score (MDA-MB-231 [2]; shRNA: shPPFIA1_1) [DSS] | drug sensitivity score (MDA-MB-231 [2]; shRNA: shScramble) [DSS]
24 | O=C(c1ccc(C(=O)N2CCC(N3CCCC3)CC2)c(Nc2ccccc2)c1)N1CCC(N2CCCC2)CC1 [UNC1215] | 0 | 0 | 0.4 | 0.3
25 | CCS(=O)(=O)c1cccc(-c2cc(C(=O)NC3CCN(C)CC3)c(C)c3[nH]c4ncc(C)cc4c23)c1 [TAK-901] | 0 | 0 | 0 | 3.6
26 | C[C@]1(O)C[C@@H](c2nc(-c3ccc4ccc(-c5ccccc5)nc4c3)c3c(N)nccn32)C1 [Linsitinib] | 0 | 0 | 0 | 0
27 | COc1cccc2c1C(=O)c1c(O)c3c(c(O)c1C2=O)C[C@@](O)(C(=O)CO)C[C@@H]3O[C@H]1C[C@H](N)[C@H](O)[C@H](C)O1 [Doxorubicin] | 0 | 0 | 1.4 | 6.8
28 | NC(=O)c1cccc(-c2cccc(OC(=O)NC3CCCCC3)c2)c1 [URB597] | 0 | 0 | 0.2 | 0
29 | CCCCC(=O)OCC(=O)[C@]1(O)Cc2c(O)c3c(c(O)c2[C@@H](O[C@H]2C[C@H](NC(=O)C(F)(F)F)[C@H](O)[C@H](C)O2)C1)C(=O)c1c(OC)cccc1C3=O [Valrubicin] | 0 | 0 | 0.8 | 7
30 | CN(C)C(=N)NC(=N)N [Metformin] | 0 | 0 | 0 | 0
31 | Nc1nc(Nc2ccc3c(c2)CC[C@@H](N2CCCC2)CC3)nn1-c1cc2c(nn1)-c1ccccc1CCC2 [BGB324] | 4.4 | 6.1 | 10.6 | 9.5
32 | NC[C@@](O)(c1ccc(Cl)cc1)c1ccc(-c2cn[nH]c2)cc1 | 7.8 | 7.6 | 3 | 6
33 | COc1cc(NS(C)(=O)=O)ccc1Nc1c2ccccc2nc2ccccc12 [Amsacrine] | 2 | 7.4 | 4.8 | 8.6
34 | Nc1ncnc2c1nc(Cl)n2[C@@H]1O[C@H](CO)[C@@H](O)[C@H]1O [8-chloro-adenosine] | 0.9 | 0 | 1.3 | 10.6
35 | CN(c1ncccc1CNc1nc(Nc2ccc3c(c2)CC(=O)N3)ncc1C(F)(F)F)S(C)(=O)=O | 2.5 | 1.8 | 0.5 | 5.8
36 | CO[C@@H]1[C@H](N(C)C(=O)c2ccccc2)C[C@H]2O[C@]1(C)n1c3ccccc3c3c4c(c5c6ccccc6n2c5c31)C(=O)NC4 [Midostaurin] | 0 | 0.1 | 0 | 3.5
37 | CC(C)NC[C@@H](C(=O)N1CCN(c2ncnc3c2[C@H](C)C[C@H]3O)CC1)c1ccc(Cl)cc1 [Ipatasertib] | 0 | 0 | 3.3 | 3.7
38 | CCn1c(-c2nonc2N)nc2c(C#CC(C)(C)O)ncc(OC[C@H]3CCCNC3)c21 | 0 | 0 | 0 | 0.2
39 | CC(C)(O)CC(=O)NCCn1ccc2ncnc(Nc3ccc(Oc4cccc(C(F)(F)F)c4)c(Cl)c3)c21 [TAK-285] | 0 | 0 | 0.9 | 0
40 | COC(=O)c1ccc2c(c1)NC(=O)/C2=C(\Nc1ccc(N(C)C(=O)CN2CCN(C)CC2)cc1)c1ccccc1 [Nintedanib] | 1.1 | 6.7 | 0 | 8.1
41 | O=C1NC(=O)/C(=C/c2ccc3nccc(-c4ccncc4)c3c2)S1 | 0 | 0 | 0 | 4.3
42 | Cc1sc2c(c1C)C(c1ccc(Cl)cc1)=N[C@@H](CC(=O)Nc1ccc(O)cc1)c1nnc(C)n1-2 [OTX015] | 0 | 0 | 0 | 10.2
43 | CC1(COc2ccc3c(c2)ncn3-c2ccc3cccc(N4CCC(N)CC4)c3n2)COC1 [Crenolanib] | 7.2 | 4.6 | 5.3 | 9.4
44 | COc1cc(Nc2ncc(F)c(Nc3ccc4c(n3)N(COP(=O)(O)O)C(=O)C(C)(C)O4)n2)cc(OC)c1OC [Fostamatinib] | 1.6 | 0.8 | 1 | 5.3
45 | Cn1cncc1[C@@](N)(c1ccc(Cl)cc1)c1ccc2c(c1)c(-c1cccc(Cl)c1)cc(=O)n2C [Tipifarnib] | 5.9 | 0.8 | 3.5 | 4
46 | O=c1cc(N2CCOCC2)oc2c(-c3ccccc3)cccc12 | 0.1 | 2.4 | 1.7 | 0

Reference: the supplement of paper PMC10920090
